Test results: US11746110B2, “Alkynyl (hetero) aromatic ring compounds used for inhibiting protein kinase activity” (Shenzhen TargetRx, Inc., priority 2018, dated 2023)

Assays:
Ba/F3 BCR-ABL cells = assay: Cell proliferation analysis, Ba/F3 BCR-ABL; assay type: cell-based; details: Mus musculus, BaF3, 72 h; 3 days, CellTiter-Glo
Experimental: [Worded in the source for another variant; this variant is reported under the same test.] (§1) The inhibitory effect of the example compounds on Ba/F3 parental, Ba/F3 Bcr-Abl^T315I, K562, Ba/F3 KIF5B-RET, BaF3 FLT3-ITD cell activity was determined.
(§2) Materials and reagents: RPMI-1640 medium (GIBCO, Catalog No. A10491-01), fetal bovine serum (GIBCO, Catalog No. 10099141), antibiotics (Penicillin-Streptomycin), IL-3(PeproTech), promycin; cell lines: Ba/F3 parental, Ba/F3 Bcr-Abl^T315I, Ba/F3 KIF5B-RET, BaF3 FLT3-ITD, (purchased from American type culture collection, ATCC), K562 live cell detection kit CellTiter-Glo4(Promega, Catalog No. G7572), 96-well black wall transparent flat bottom cell culture plate (Corning, Catalog No. 3340).
(§3) Test method: 1. Preparation of cell plate: Ba/F3 parental, Ba/F3 Bcr-Abl^T315I K563, Ba/F3 KIFSB-RET, BaF3 FLT3-ITD cells were respectively seeded in 96-well plates, and 8 ng/ml IL-3 was added to the Ba/F3 cells, and the cell plates were placed in a carbon dioxide incubator and cultured overnight. 2. The test compounds were dissolved in DMSO, 9 compound concentrations were made with a 3.16-fold gradient dilution in triplicate. 3. Treatment of the cells with compounds: The compounds were transferred to the cell plate with a starting concentration of 10 μM. The cell plate was placed in a carbon dioxide incubator for 3 days. 4. Detection: CellTiter-Glo agent was added to the cell plate, and incubated at room temperature for 30 minutes to stabilize the luminous signal. PerkinElmer Envision multi-label analyzer was used for reading, wherein A represents IC50≤50 nM, B represents IC50 is 50-100 nM, C represents IC50 is 100-500 nM, D represents IC50 is 500-1000 nM, […].

Ba/F3 parental cells = assay: Cell proliferation analysis, Ba/F3 parental; assay type: cell-based; details: Mus musculus, BaF3, 72 h; 3 days, CellTiter-Glo, 8 ng/ml IL-3
Experimental: as §1, §2, §3

Ba/F3 KIF5B-RET cells = assay: Cell proliferation analysis, Ba/F3 KIF5B-RET; assay type: cell-based; details: Mus musculus, BaF3, 72 h; 3 days, CellTiter-Glo
Experimental: as §1, §2, §3

BaF3 FLT3-ITD cells = assay: Cell proliferation analysis, BaF3 FLT3-ITD; assay type: cell-based; details: Ba/F3 FLT3-ITD, 72 h; 3 days, CellTiter-Glo
Experimental: as §1, §2, §3

[1] = system: Ba/F3 Bcr-Abl^T315I cells; assay: Cell proliferation analysis, Ba/F3 Bcr-Abl T315I; assay type: cell-based; details: Mus musculus, BaF3, 72 h; 3 days, CellTiter-Glo; read-out: IC50 (nM) Ba/F3 BCR-ABL^T315
Experimental: as §1, §2, §3

K562 cells = assay: Cell proliferation analysis, K562; assay type: cell-based; details: Homo sapiens, K562, 72 h; 3 days, CellTiter-Glo
Experimental: as §1, §2, §3

RET^V804M = RET^V804M (Homo sapiens (Human), UniProt P07949, V804M); assay: Biochemical kinase analysis, RET V804M; details: kinase inhibition assay
Chain of RET^V804M (P07949 29-1114 V804M): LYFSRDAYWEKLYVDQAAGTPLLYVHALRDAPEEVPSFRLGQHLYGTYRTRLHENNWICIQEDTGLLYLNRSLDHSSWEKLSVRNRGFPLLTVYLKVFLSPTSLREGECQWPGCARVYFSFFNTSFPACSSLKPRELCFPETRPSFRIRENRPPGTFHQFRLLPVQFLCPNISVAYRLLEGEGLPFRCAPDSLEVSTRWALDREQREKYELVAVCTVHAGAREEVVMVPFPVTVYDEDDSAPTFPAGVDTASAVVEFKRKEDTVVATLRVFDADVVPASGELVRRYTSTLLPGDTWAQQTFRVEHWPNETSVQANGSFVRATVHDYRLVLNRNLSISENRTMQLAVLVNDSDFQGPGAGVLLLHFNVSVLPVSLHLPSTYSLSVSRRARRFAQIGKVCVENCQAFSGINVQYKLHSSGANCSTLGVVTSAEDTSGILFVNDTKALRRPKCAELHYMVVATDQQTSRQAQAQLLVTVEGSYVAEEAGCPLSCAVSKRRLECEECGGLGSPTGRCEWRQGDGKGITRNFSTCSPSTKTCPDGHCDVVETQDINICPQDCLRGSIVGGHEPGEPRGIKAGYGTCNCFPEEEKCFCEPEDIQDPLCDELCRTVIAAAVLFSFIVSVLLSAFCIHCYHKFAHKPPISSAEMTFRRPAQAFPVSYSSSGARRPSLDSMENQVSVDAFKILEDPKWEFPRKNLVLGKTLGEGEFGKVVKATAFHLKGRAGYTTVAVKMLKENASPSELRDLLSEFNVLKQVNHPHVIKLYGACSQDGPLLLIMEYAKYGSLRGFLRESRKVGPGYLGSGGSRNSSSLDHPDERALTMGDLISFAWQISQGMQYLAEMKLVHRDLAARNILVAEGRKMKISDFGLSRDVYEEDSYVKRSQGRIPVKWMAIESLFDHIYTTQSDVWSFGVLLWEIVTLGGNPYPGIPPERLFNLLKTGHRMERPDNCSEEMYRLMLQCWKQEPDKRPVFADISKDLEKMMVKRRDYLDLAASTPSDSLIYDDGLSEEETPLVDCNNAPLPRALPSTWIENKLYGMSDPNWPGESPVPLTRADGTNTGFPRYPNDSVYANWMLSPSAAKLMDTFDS
Experimental: (§4) Reagents and materials: ABL (ThermoFisher, Cat. No. PV3585), ABL^T315I(Thermo Fisher, Cat. No. PR7429B), Ret (Carna, Cat. No. 08-159-10 ug), RET^V804M, Active (Signalchem, Cat. No. R02-12GG), ATP (Sigma, Cat. No. A7699-1G), DMSO (Sigma, Cat. No. D2650), 96-well plate (Corning, Cat. No. 3365), 384-well plate (Greiner, Cat. No. 784076), buffer solution (Thermo Fisher, Cat. No. PR4876B).
(§5) Compound formulation: The test compounds were dissolved in DMSO to prepare a 20 mM stock solution. Before use, the compounds were diluted in DMSO to 0.1 mM, and diluted into 11 concentrations with a 3-fold gradient. When addition, dilutions of 4-fold final concentration were then made with buffer solution.
(§6) Kinase assay method: After preparing the buffer, the enzyme was mixed with pre-formulated and diluted compounds of different concentrations in duplicate for each concentration, and placed at room temperature for 30 minutes. The corresponding substrate and ATP were added thereto, and reacted at room temperature for 60 minutes (both a negative and a positive control were set). After the reaction, antibody was added for detection, Evnvision detection was carried out after 60 minutes incubation at room temperature, and data was collected. Data analysis and fitting were made according to XLfit5 software.

ABL = ABL (Homo sapiens (Human), UniProt P00519); assay: Biochemical kinase analysis, ABL; details: kinase inhibition assay
Experimental: as §4, §5, §6

Ret = Ret (Homo sapiens (Human), UniProt P07949); assay: Biochemical kinase analysis, Ret; details: kinase inhibition assay
Chain of Ret (P07949 29-1114): as the sequence (P07949 29-1114 V804M) above, with M776V counted along it
Experimental: as §4, §5, §6

ABL^T315I = ABL^T315I (Homo sapiens (Human), UniProt P00519, T315I); assay: Biochemical kinase analysis, ABL T315I; details: kinase inhibition assay
Experimental: as §4, §5, §6

| SMILES | IC50 (Ba/F3 BCR-ABL cells) [nM] | IC50 (Ba/F3 parental cells) [nM] | IC50 (Ba/F3 KIF5B-RET cells) [nM] | IC50 (BaF3 FLT3-ITD cells) [nM] | IC50 [1] [nM] | IC50 (K562 cells) [nM] | IC50 (RET^V804M) [nM] | IC50 (ABL) [nM] | IC50 (Ret) [nM] | IC50 (ABL^T315I) [nM] |
| --- | --- | --- | --- | --- | --- | --- | --- | --- | --- | --- |
| Cc1ccc(C(=O)Nc2cccc(C(F)(F)F)c2)cc1C#Cc1cnc2c(Nc3cnn(C)c3)ccnn12 [Example 14, 4-methyl-3-((8-((1-methyl-1H-pyrazol-4-yl)amino)imidazo[1,2-b]pyridazin-3-yl)ethynyl)-N-(3-(trifluoromethyl)phenyl)benzamide] | 9.02 | 1550 | 15.8 | 23 | 24.9 | 0.97 | 9.92 | 4.91 | 0.49 | 12.6 |
| Cc1ccc(C(=O)Nc2ccc(CN3CCN(C)CC3)c(C(F)(F)F)c2)cc1C#Cc1cnc2c(Nc3cnn(C)c3)ccnn12 [Example 15, 4-methyl-3-((8-((1-methyl-1H-pyrazol-4-yl)amino)imidazo[1,2-b]pyridazin-3-yl)ethynyl)-N-(4-((4-methylpiperazin-1-yl)methyl)-3-(trifluoromethyl)phenyl)benzamide] | 12.8 | 280 | 4.56 | 1.14 | 25.2 | 0.76 | 1.42 | 3.24 | 0.37 | 4.28 |
